The record followed here is PubChem BioAssay AID276 (DTP/NCI, 2004).

The subject of this experiment is B6C3F1 mice, Lewis lung carcinoma iv, survival T/C. Nature of the experiment: NCI In Vivo Anticancer Drug Screen. Data for tumor model Lewis Lung Carcinoma (intravenous) in B6C3F1 mice. The following applies: endpoint: median survival time, higher = longer survival. The method in brief: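 Antitumor activity is assessed in tumor-bearing mice by comparing survival after compound treatment against vehicle-treated controls, reported as a T/C ratio.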

Where [1] appears, read: dose: 12.5 mg/kg/injection, schedule: Q01DX009 (ip), vehicle: saline.
[2] abbreviates: dose: 25.0 mg/kg/injection, schedule: Q01DX009 (ip), vehicle: saline.
Setting [3] is: dose: 50.0 mg/kg/injection, schedule: Q01DX009 (ip), vehicle: saline.
Setting [4] is: dose: 100.0 mg/kg/injection, schedule: Q01DX009 (ip), vehicle: saline.
Setting [5] is: dose: 200.0 mg/kg/injection, schedule: Q01DX009 (ip), vehicle: saline.
Where [6] appears, read: dose: 400.0 mg/kg/injection, schedule: Q01DX009 (ip), vehicle: saline.
The mark [7] stands for this setting: dose: 12.5 mg/kg/injection, schedule: Q01DX009 (ip), vehicle: saline with Tween-80.
The mark [8] stands for this setting: dose: 25.0 mg/kg/injection, schedule: Q01DX009 (ip), vehicle: saline with Tween-80.
Setting [9] is: dose: 6.25 mg/kg/injection, schedule: Q01DX009 (ip), vehicle: Klucel (hydroxypropylcellulose) (HPC).
[10] abbreviates: dose: 12.5 mg/kg/injection, schedule: Q01DX009 (ip), vehicle: Klucel (hydroxypropylcellulose) (HPC).
Setting [11] is: dose: 25.0 mg/kg/injection, schedule: Q01DX009 (ip), vehicle: Klucel (hydroxypropylcellulose) (HPC).
Setting [12] is: dose: 50.0 mg/kg/injection, schedule: Q01DX009 (ip), vehicle: Klucel (hydroxypropylcellulose) (HPC).
Setting [13] is: dose: 100.0 mg/kg/injection, schedule: Q01DX009 (ip), vehicle: Klucel (hydroxypropylcellulose) (HPC).
Where [14] appears, read: dose: 200.0 mg/kg/injection, schedule: Q01DX009 (ip), vehicle: Klucel (hydroxypropylcellulose) (HPC).

Where “and” joins values, the source holds several entries; their conditions need not be identical. Equal values may be shown once. Inconclusive results and toxic doses are left out.

Take `C/C=C(\C)c1cc(=O)c2c(C)cc3c(c2o1)C(=O)c1c(O)c(C2CC(C)(N(C)C)C(O)C(C)O2)cc(C2CC(N(C)C)C(O)C(C)O2)c1C3=O` (configuration not stated): the T/C is 98 % of control (dose: 31.25 micrograms/kg/injection, schedule: Q01DX009 (ip), vehicle: saline); 101 % of control (dose: 62.5 micrograms/kg/injection, schedule: Q01DX009 (ip), vehicle: saline); 101 % of control (dose: 125.0 micrograms/kg/injection, schedule: Q01DX009 (ip), vehicle: saline); 98 % of control (dose: 250.0 micrograms/kg/injection, schedule: Q01DX009 (ip), vehicle: saline).

On to `COC(=O)C(N)Cc1ccc(O)c(O)c1` (configuration not stated), for which the T/C under setting [1] was 107 % of control; the T/C under setting [2] was 103 % of control; the T/C under setting [3] was 101 % of control; the T/C under setting [4] was 109 % of control; the T/C under setting [5] was 92 % of control; the T/C under setting [6] was 95 % of control. In addition, the T/C (dose: 800.0 mg/kg/injection, schedule: Q01DX009 (ip), vehicle: saline) was 95 % of control.

For `CCC1=C2C(=O)c3ccccc3C2=C(C)S(=O)(=O)O1`, the T/C was 104 % of control (dose: 3.12 mg/kg/injection, schedule: Q01DX009 (ip), vehicle: saline with Tween-80); 99 % of control (dose: 6.25 mg/kg/injection, schedule: Q01DX009 (ip), vehicle: saline with Tween-80); 97 % of control under setting [7]; 107 % of control under setting [8].

As to `O=NN(CCF)C(=O)NCCO`, the T/C was 238 % of control (dose: 5.0 mg/kg/injection, schedule: Q01DX009 (ip), vehicle: saline) and 215 % of control (dose: 10.0 mg/kg/injection, schedule: Q01DX009 (ip), vehicle: saline).

Take `NC(CCC(=O)NC(CS)C(=O)NCC(=O)O)C(=O)O` (configuration not stated): the T/C under setting [3] was 100 % of control, the T/C under setting [4] was 101 % of control, the T/C under setting [5] is 95 % of control and the T/C under setting [6] is 103 % of control.

For `CCC1CC2CN(CCc3c([nH]c4ccccc34)C(C(=O)OC)(c3cc4c(cc3OC)N(C)C3C(O)(C(=O)OC)C(OC(C)=O)C5(CC)C=CCN6CCC43C65)C2)C1` (configuration not stated), the T/C was 103 % of control (dose: 0.06 mg/kg/injection, schedule: Q01DX009 (ip), vehicle: suspension in saline); 102 % of control (dose: 0.12 mg/kg/injection, schedule: Q01DX009 (ip), vehicle: suspension in saline); 108 % of control (dose: 0.25 mg/kg/injection, schedule: Q01DX009 (ip), vehicle: suspension in saline); 103 % of control (dose: 0.5 mg/kg/injection, schedule: Q01DX009 (ip), vehicle: suspension in saline); 112 % of control (dose: 1.0 mg/kg/injection, schedule: Q01DX009 (ip), vehicle: suspension in saline); 102 % of control (dose: 2.0 mg/kg/injection, schedule: Q01DX009 (ip), vehicle: suspension in saline).

Turning to `C=C(C)/C([O-])=N/[N+](C)(C)CC(O)CCCCCCCCCCCC` (configuration not stated), the T/C runs as follows: (dose: 1.56 mg/kg/injection, schedule: Q01DX001 (ip), vehicle: saline) 96 % of control; (dose: 3.12 mg/kg/injection, schedule: Q01DX001 (ip), vehicle: saline) 104 % of control; (dose: 6.25 mg/kg/injection, schedule: Q01DX001 (ip), vehicle: saline) 98 % of control; (dose: 12.5 mg/kg/injection, schedule: Q01DX001 (ip), vehicle: saline) 109 % of control; (dose: 25.0 mg/kg/injection, schedule: Q01DX001 (ip), vehicle: saline) 103 % of control and 106 % of control; (dose: 50.0 mg/kg/injection, schedule: Q01DX001 (ip), vehicle: saline) 98 % of control and 100 % of control. In addition, the T/C reads like this: (dose: 100.0 mg/kg/injection, schedule: Q01DX001 (ip), vehicle: saline) 95 % of control; (dose: 200.0 mg/kg/injection, schedule: Q01DX001 (ip), vehicle: saline) 97 % of control.

In the case of `CCc1ccccc1N1CCN(C(=O)c2cc(OC)c(OC)c(OC)c2)CC1`, the T/C under setting [9] was 106 % of control; the T/C under setting [10] was 103 % of control; the T/C under setting [11] was 110 % of control; the T/C under setting [12] is 110 % of control; the T/C under setting [13] is 105 % of control.

As for `Oc1ccc(CCl)c2cccnc12`, the T/C under setting [1] was 105 % of control, the T/C under setting [2] is 103 % of control, the T/C under setting [3] was 103 % of control and the T/C under setting [4] was 98 % of control.

On to `C[CH2][Sn]([CH2]C)([O]S(C)(=O)=O)[O]S(C)(=O)=O`, for which the T/C (dose: 0.09 mg/kg/injection, schedule: Q01DX009 (ip), vehicle: saline) is 108 % of control; the T/C (dose: 0.19 mg/kg/injection, schedule: Q01DX009 (ip), vehicle: saline) is 97 % of control; the T/C (dose: 0.39 mg/kg/injection, schedule: Q01DX009 (ip), vehicle: saline) is 99 % of control; the T/C (dose: 0.79 mg/kg/injection, schedule: Q01DX009 (ip), vehicle: saline) was 109 % of control; the T/C (dose: 1.56 mg/kg/injection, schedule: Q01DX009 (ip), vehicle: saline) was 93 % of control and 102 % of control; the T/C (dose: 3.12 mg/kg/injection, schedule: Q01DX009 (ip), vehicle: saline) is 91 % of control and 87 % of control.

Consider `O=C1c2cccc3cc([N+](=O)[O-])cc(c23)C(=O)N1CCN1CCCC1`, for which the T/C runs as follows: (dose: 3.0 mg/kg/injection, schedule: Q01DX009 (ip), vehicle: saline with Tween-80) 106 % of control; (dose: 6.0 mg/kg/injection, schedule: Q01DX009 (ip), vehicle: saline with Tween-80) 115 % of control.

Consider `Nc1nc(F)nc2c1ncn2C1OC(COP(=O)(O)O)C(O)C1O` (configuration not stated), for which the T/C by setting is: under setting [1], 105 % of control; under setting [2], 102 % of control; under setting [3], 103 % of control; under setting [4], 114 % of control; under setting [5], 87 % of control.

Take `CC1(C)CC(=O)C(CSC(=O)c2ccccc2)C(=O)C1`: the T/C by setting is: (dose: 3.13 mg/kg/injection, schedule: Q01DX009 (ip), vehicle: Klucel (hydroxypropylcellulose) (HPC)) 101 % of control; under setting [9], 95 % of control; under setting [10], 95 % of control; under setting [11], 103 % of control; under setting [12], 103 % of control.

In the case of `CNNCc1ccc(C(=O)NC(C)C)cc1`, the T/C is, setting by setting: under setting [13], 153 % of control; under setting [14], 151 % of control; (dose: 400.0 mg/kg/injection, schedule: Q01DX009 (ip), vehicle: Klucel (hydroxypropylcellulose) (HPC)) 200 % of control.

For `COc1cccc2c1C(=O)c1c(O)c3c(c(O)c1C2=O)CC(O)(/C(C)=N/NC(=O)CCCCC(=O)N/N=C(\C)C1(O)Cc2c(O)c4c(c(O)c2C(OC2CC(N)C(O)C(C)O2)C1)C(=O)c1c(OC)cccc1C4=O)CC3OC1CC(N)C(O)C(C)O1` (configuration not stated), the T/C by setting is: (dose: 1.5 mg/kg/injection, schedule: Q01DX009 (ip), vehicle: water) 120 % of control; (dose: 3.0 mg/kg/injection, schedule: Q01DX009 (ip), vehicle: water) 109 % of control; (dose: 6.25 mg/kg/injection, schedule: Q01DX009 (ip), vehicle: water) 117 % of control.

Turning to `CCCCn1cnc2c(=S)nc[nH]c21`, the T/C under setting [2] was 112 % of control and the T/C under setting [3] was 110 % of control.

Turning to `O=c1n[n+]([O-])ccn1C1OC(CO)C(O)C1O` (configuration not stated), the T/C reads like this: under setting [3], 117 % of control; under setting [4], 107 % of control; under setting [6], 89 % of control.

Consider `N/C(=N\OC(=O)Nc1ccc(CSc2ccc(Cl)cc2)o1)c1ccccn1`, for which the T/C by setting is: under setting [11], 102 % of control; under setting [12], 103 % of control; under setting [13], 99 % of control; under setting [14], 99 % of control.

As to `NCCCNCCSP(=O)(O)O`, the T/C is, setting by setting: under setting [7], 98 % of control; under setting [8], 98 % of control; (dose: 50.0 mg/kg/injection, schedule: Q01DX009 (ip), vehicle: saline with Tween-80) 95 % of control; (dose: 100.0 mg/kg/injection, schedule: Q01DX009 (ip), vehicle: saline with Tween-80) 106 % of control; (dose: 200.0 mg/kg/injection, schedule: Q01DX009 (ip), vehicle: saline with Tween-80) 105 % of control.
